Laboratory results reported in article PMC9823088, “The oral selective estrogen receptor degrader GDC-0810 (ARN-810) in postmenopausal women with hormone receptor-positive HER2-negative (HR + /HER2 −) advanced/metastatic breast cancer” (Breast Cancer Research and Treatment, 2022).

Experiment: Safety: adverse events (NCI-CTCAE v4.0), DLT, MTD, RP2D
Type: in vivo
Description: AEs were assessed using the National Cancer Institute-Common Terminology Criteria for Adverse Events (NCI-CTCAE v4.0). […] The protocol-defined GDC-0810-specific AEs of special interest (AESI) which were non-serious adverse events that required expedited reporting to the sponsor, included DLTs occurring during the DLT assessment window, grade ≥ 2 vomiting/diarrhea, grade ≥ 3 nausea, grade ≥ 2 thromboembolic events, grade ≥ 2 vaginal or uterine hemorrhage, and grade ≥ 3 elevation of ALT or AST.
Analyses of safety, pharmacokinetics, anti-tumor activity, and data from the FES-PET imaging correlative studies were planned. Confirmatory inferential analyses and imputation for missing data were not planned due to the exploratory nature of this study. Descriptive statistics were used to summarize patient data. The number of patients to be enrolled was dependent upon the observed safety and pharmacokinetic profile during dose escalations. The safety- and efficacy-evaluable population included patients who received at least one dose of the study drug. Safety was assessed through summaries of DLTs, AEs, changes in select laboratory test results, vital signs, ECGs, and changes in endometrial thickness. Objective response (with confirmation) and clinical benefit rates (CBR) were derived per RECIST v1.1 and summarized by dose level and cohort. […]
polyps, endometrial cancer, endometrial hyperplasia, and other significant disorders); any […]
disease or chronic diarrhea, short bowel syndrome, or upper gastrointestinal surgery; known human immunodeficiency virus (HIV) infection; known clinically significant history of liver disease; major surgery within 4 weeks prior to enrollment; or radiation therapy within 2 weeks […]
There were phase-specific exclusion criteria as well. In phase Ib, cohort C1 excluded patients with a history of venous thromboembolic event requiring therapeutic anticoagulation or vaginal bleeding within 2 months prior to enrollment. In phase IIa, cohorts A1 and A2 excluded patients with >1 chemotherapy in the advanced/metastatic disease setting. In phase IIa, cohort B1 excluded patients with >1 prior AI in the advanced/metastatic disease setting or prior […]
In phase IIa, cohort B2 excluded patients with >1 prior AI or >1 prior chemotherapy in the advanced/metastatic disease setting.
Patients in phase Ia in dose escalation received oral doses of GDC-0810 during 28-day cycles given once daily (QD) or twice-daily (BID), with fasting and without fasting, and with a single dose given on day −7 leading into cycle 1. The starting dose in the first cohort was 100 mg per day based on preclinical studies. Dose escalation to 200 mg and by 200 mg increments in successive cohorts occurred in the absence of dose-limiting toxicities (DLTs), or conditionally in the presence of DLTs. A DLT was defined as any adverse event (AE) occurring during the DLT window deemed by the investigator or sponsor to be related to the study drug unless they were clearly related to disease progression or other cause; DLT incidences were evaluated from day […]
patients in a dose cohort experienced a DLT, 3 additional patients were assigned to that dose; dose escalation to the next level proceeded if DLTs were experienced by ≤1 patient out of 6. If ≥2 patients experienced DLTs at a given dose, a lower dose was to be declared the maximum […]
Phase Ib was a dose-escalation study of GDC-0810 starting at 400 mg QD, as […]
Phase IIa explored the recommended phase 2 dose (RP2D) from phase Ia. All patients received GDC-0810 600 mg under non-fasting conditions. Cohorts A1 and A2 enrolled patients with tumors harboring ESR1 mutations with no prior fulvestrant use in cohort A1 while prior fulvestrant use was allowed in cohort A2. Cohorts B1 and B2 enrolled patients whose disease had progressed and who may have had one or no AI therapy; there was no prior fulvestrant use in cohort B1 while prior fulvestrant use was allowed in cohort B2.
Patients in all three study phases continued treatment until unacceptable toxicity, disease

[1] = phase 1a (n=41), grade 3, cohort 200 mg
[2] = phase 1a (n=41), grade 3, cohort 300 mg, BID
[3] = phase 1a (n=41), grade 3, cohort 600 mg
[4] = phase 1a (n=41), grade 3, cohort 800 mg, non-fasting
[5] = phase 1a (n=41), grade 4, cohort 600 mg, non-fasting
[6] = phase 1a (n=41), grade 5, cohort 600 mg, non-fasting
[7] = phase IIa A1, 600 mg QD, n = 19
[8] = phase IIa A2, 600 mg QD, n = 10
[9] = phase IIa B1, 600 mg QD, n = 53
[10] = phase IIa B2, 600 mg QD, n = 19

## CC/C(=C(/c1ccc(/C=C/C(=O)O)cc1)c1ccc2[nH]ncc2c1)c1ccc(F)cc1Cl [GDC-0810]
800 mg daily
  tolerability based on frequency of gastrointestinal AEs: intolerable
Across all 3 phases
  patients who reported SAEs regardless of attribution: 33 patients
All 3 study phases, N = 152
  AST increased, Grades 3–5: 4 (3) n (%)
  AST increased, all grades: 26 (17) n (%)
  Abdominal pain, Grades 3–5: 3 (2) n (%)
  Abdominal pain, all grades: 28 (18) n (%)
  Anemia, Grades 3–5: 4 (3) n (%)
  Anemia, all grades: 34 (22) n (%)
  Arthralgia, Grades 3–5: 0 n (%)
  Arthralgia, all grades: 32 (21) n (%)
  Constipation, Grades 3–5: 1 (1) n (%)
  Constipation, all grades: 42 (28) n (%)
  Cough, Grades 3–5: 1 (1) n (%)
  Cough, all grades: 30 (20) n (%)
  Decreased appetite, Grades 3–5: 0 n (%)
  Decreased appetite, all grades: 38 (25) n (%)
  Diarrhea, Grades 3–5: 7 (5) n (%)
  Diarrhea, all grades: 95 (63) n (%)
  Dyspepsia, Grades 3–5: 1 (1) n (%)
  Dyspepsia, all grades: 30 (20) n (%)
  Fatigue, Grades 3–5: 6 (4) n (%)
  Fatigue, all grades: 77 (51) n (%)
  Flatulence, Grades 3–5: 0 n (%)
  Flatulence, all grades: 29 (19) n (%)
  Nausea, Grades 3–5: 1 (1) n (%)
  Nausea, all grades: 82 (54) n (%)
  Vomiting, Grades 3–5: 4 (3) n (%)
  Vomiting, all grades: 47 (31) n (%)
All who received the study drug
  patients experiencing ≥ 1 AE regardless of causality: All patients
Dose escalation, 35-day DLT window, diarrhea, 800-mg QD
  dose-limiting toxicity (DLT): one and a DLT
In vivo
  ER agonist effects on the lipid profiles of patients: no clinically significant ER agonist effects
Phase 1a
  patients who reported SAEs regardless of attribution: 13 n
Phase 1a (n=41), grade 1, cohort 800 mg, non-fasting
  SAE Pneumothorax: 1 (2%) n (%)
Phase 1a (n=41), grade 2, cohort 300 mg, BID
  SAE Presyncope: 1 (2%) n (%)
Phase 1a (n=41), grade 3, cohort 100 mg
  SAE Urinary tract infection: 1 (2%) n (%)
[1]
  SAE Abdominal pain: 1 (2%) n (%)
  SAE Nausea: 1 (2%) n (%)
  SAE Vomiting: 1 (2%) n (%)
[2]
  SAE Skin infection: 1 (2%) n (%)
  SAE Venous thrombosis: 1 (2%) n (%)
[3]
  SAE Anemia: 1 (2%) n (%)
  SAE Ascites: 1 (2%) n (%)
[4]
  SAE Adrenal insufficiency: 1 (2%) n (%)
  SAE Fatigue: 1 (2%) n (%)
Phase 1a (n=41), grade 4, cohort 300 mg, BID, related to study drug
  SAE Pulmonary embolism: 1 (2%) n (%)
Phase 1a (n=41), grade 4, cohort 600 mg
  SAE Thrombocytopenia: 1 (2%) n (%)
[5]
  SAE Cardiac arrest: 1 (2%) n (%)
  SAE Hyponatremia: 1 (2%) n (%)
[6]
  SAE Cardiac failure: 1 (2%) n (%)
  SAE Metastases to peritoneum: 1 (2%) n (%)
Phase 1a (n=41), grade 5, cohort 800 mg
  SAE Blood bilirubin increased: 1 (2%) n (%)
Phase 1b
  patients who reported SAEs regardless of attribution: 3 n
Phase 2a
  patients who reported SAEs regardless of attribution: 17 n
Phase IIa
  deaths: 3 deaths
[7]
  AST increased, Grades 3–5: 0 n (%)
  AST increased, all grades: 1 (5) n (%)
  Abdominal pain, Grades 3–5: 1 (5) n (%)
  Abdominal pain, all grades: 3 (16) n (%)
  Anemia, Grades 3–5: 0 n (%)
  Anemia, all grades: 2 (11) n (%)
  Arthralgia, Grades 3–5: 0 n (%)
  Arthralgia, all grades: 4 (21) n (%)
  Constipation, Grades 3–5: 0 n (%)
  Constipation, all grades: 2 (11) n (%)
  Cough, Grades 3–5: 0 n (%)
  Cough, all grades: 2 (11) n (%)
  Decreased appetite, Grades 3–5: 0 n (%)
  Decreased appetite, all grades: 6 (32) n (%)
  Diarrhea, Grades 3–5: 0 n (%)
  Diarrhea, all grades: 10 (53) n (%)
  Dyspepsia, Grades 3–5: 0 n (%)
  Dyspepsia, all grades: 6 (31) n (%)
  Fatigue, Grades 3–5: 0 n (%)
  Fatigue, all grades: 8 (42) n (%)
  Flatulence, Grades 3–5: 0 n (%)
  Flatulence, all grades: 4 (21) n (%)
  Nausea, Grades 3–5: 0 n (%)
  Nausea, all grades: 8 (42) n (%)
  Vomiting, Grades 3–5: 2 (11) n (%)
  Vomiting, all grades: 8 (42) n (%)
[8]
  AST increased, Grades 3–5: 0 n (%)
  AST increased, all grades: 2 (20) n (%)
  Abdominal pain, Grades 3–5: 0 n (%)
  Abdominal pain, all grades: 0 n (%)
  Anemia, Grades 3–5: 1 (10) n (%)
  Anemia, all grades: 2 (20) n (%)
  Arthralgia, Grades 3–5: 0 n (%)
  Arthralgia, all grades: 0 n (%)
  Constipation, Grades 3–5: 0 n (%)
  Constipation, all grades: 0 n (%)
  Cough, Grades 3–5: 0 n (%)
  Cough, all grades: 1 (10) n (%)
  Decreased appetite, Grades 3–5: 0 n (%)
  Decreased appetite, all grades: 3 (30) n (%)
  Diarrhea, Grades 3–5: 1 (10) n (%)
  Diarrhea, all grades: 5 (50) n (%)
  Dyspepsia, Grades 3–5: 1 (10) n (%)
  Dyspepsia, all grades: 2 (20) n (%)
  Fatigue, Grades 3–5: 0 n (%)
  Fatigue, all grades: 2 (20) n (%)
  Flatulence, Grades 3–5: 0 n (%)
  Flatulence, all grades: 0 n (%)
  Nausea, Grades 3–5: 0 n (%)
  Nausea, all grades: 6 (60) n (%)
  Vomiting, Grades 3–5: 0 n (%)
  Vomiting, all grades: 4 (40) n (%)
[9]
  AST increased, Grades 3–5: 2 (4) n (%)
  AST increased, all grades: 4 (8) n (%)
  Abdominal pain, Grades 3–5: 1 (2) n (%)
  Abdominal pain, all grades: 10 (19) n (%)
  Anemia, Grades 3–5: 1 (2) n (%)
  Anemia, all grades: 6 (11) n (%)
  Arthralgia, Grades 3–5: 0 n (%)
  Arthralgia, all grades: 14 (26) n (%)
  Constipation, Grades 3–5: 1 (2) n (%)
  Constipation, all grades: 16 (30) n (%)
  Cough, Grades 3–5: 1 (2) n (%)
  Cough, all grades: 8 (15) n (%)
  Decreased appetite, Grades 3–5: 0 n (%)
  Decreased appetite, all grades: 9 (17) n (%)
  Diarrhea, Grades 3–5: 5 (9) n (%)
  Diarrhea, all grades: 29 (55) n (%)
  Dyspepsia, Grades 3–5: 0 n (%)
  Dyspepsia, all grades: 6 (11) n (%)
  Fatigue, Grades 3–5: 2 (4) n (%)
  Fatigue, all grades: 27 (51) n (%)
  Flatulence, Grades 3–5: 0 n (%)
  Flatulence, all grades: 13 (25) n (%)
  Nausea, Grades 3–5: 0 n (%)
  Nausea, all grades: 24 (45) n (%)
  Vomiting, Grades 3–5: 1 (2) n (%)
  Vomiting, all grades: 14 (26) n (%)
[10]
  AST increased, Grades 3–5: 0 n (%)
  AST increased, all grades: 1 (5) n (%)
  Abdominal pain, Grades 3–5: 0 n (%)
  Abdominal pain, all grades: 1 (5) n (%)
  Anemia, Grades 3–5: 1 (5) n (%)
  Anemia, all grades: 4 (21) n (%)
  Arthralgia, Grades 3–5: 0 n (%)
  Arthralgia, all grades: 0 n (%)
